Laboratory results as given in patent US20200079758A1, “[4-(PHENYLSULFONYL)PIPERAZIN-1-YL](1H-1,2,3-TRIAZOL-4-YL)METHANONES” (priority 2016, published 2020).

Biological target: T1, recombinant human AKR1C3 (Homo sapiens, UniProt P42330)
T1 construct: GST (cleaved yes); made in house; host or cells: E. coli
T1 sequence (P42330 1-323): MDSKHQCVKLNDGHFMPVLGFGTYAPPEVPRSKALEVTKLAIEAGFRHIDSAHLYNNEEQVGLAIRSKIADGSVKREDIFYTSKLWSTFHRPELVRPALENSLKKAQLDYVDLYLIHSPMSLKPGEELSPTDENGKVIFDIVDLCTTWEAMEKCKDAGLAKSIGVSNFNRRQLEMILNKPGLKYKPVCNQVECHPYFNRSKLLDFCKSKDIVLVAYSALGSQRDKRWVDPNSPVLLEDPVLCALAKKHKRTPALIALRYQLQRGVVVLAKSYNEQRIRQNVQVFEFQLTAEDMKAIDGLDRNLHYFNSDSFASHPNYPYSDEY
Assay: AKR1C3-inhibitory activity assay (generation of Coumberol from Coumberone)
Assay type: biochemical
Settings: Coumberone 0.3 μM, NADPH 10 μM, 22° C., typically 90 min, average or median values
Protocol: The AKR1C3-inhibitory activity of the substances of the present invention was measured in the AKR1C3 assay described in the paragraphs below.
Essentially, the enzyme activity is measured by quantification of the generation of Coumberol from Coumberone (Halim et al. J. AM. CHEM. SOC. 2008, 130:14123-14128 and Yee et al. Proc. Natl. Acad. Sci. USA 2006, 103:13304-13309). In this test, the increase of the highly fluorescent Coumberol by NADPH- (nicotinamide adenine dinucleotide phosphate)-dependent reduction of the non-fluorescent Coumberone by AKR1C3 was determined.
The enzyme used was recombinant human AKR1C3 (Aldo-keto reductase family 1 member C3; GenBank Accession No. NM_003739). This was expressed in E. coli as GST (glutathione S transferase) fusion protein and purified by glutathione Sepharose affinity chromatography. The GST was removed by digestion with thrombin and subsequent size exclusion chromatography (Dufort, I., Rheault, P., Huang, X F., Soucy, P., and Luu-The, V., Endocrinology 140, 568-574 (1999)).
For the assay, 50 nl of a 100-fold concentrated solution of the test substance in DMSO were pipetted into a black low-volume 384-well microtiter plate (Greiner Bio-One, Frickenhausen, Germany), 2.5 μl of a solution of AKR1C3 in assay buffer [50 mM potassium phosphate buffer pH 7, 1 mM DTT, 0.0022% (w/v) Pluronic F-127, 0.01% BSA (w/v) and protease inhibitor cocktail (Complete, EDTA-free Protease Inhibitor Cocktail from Roche)] were added and the mixture was incubated for 15 min to allow pre-binding of the substances to the enzyme prior to the enzyme reaction. The enzyme reaction was then started by addition of 2.5 μl of a solution of NADPH (20 μM→final concentration in 5 μl of assay volume is 10 μM) and Coumberone (0.6 μM→final concentration in 5 μl of assay volume is 0.3 μM) in assay buffer, and the resulting mixture was incubated at 22° C. for the reaction time of typically 90 min. The concentration of the AKR1C3 and the reaction time was adapted to the respective activity of the enzyme preparation and adjusted such that the assay was carried out in the linear range. Typical AKR1C3 concentrations were in the region of 1 nM. The reaction was stopped by addition of 2.5 μl of a stop solution consisting of 3 μM EM-1404 as inhibitor (U.S. Pat. No. 6,541,463) in 50 mM HEPES pH7.5 (3 μM EM-1404→final concentration in 7.5 μl of assay volume is 1 μM). The fluorescence of the Coumberole was then measured at 520 nm (excitation at 380 nm) using a suitable measuring instrument (Pherastar from BMG Labtechnologies). The intensity of the fluorescence was used as a measure of the amount of Coumberole formed and thus of the enzyme activity of AKR1C3. The data were normalized (enzyme reaction without inhibitor=0% inhibition; all other assay components, but no enzyme=100% inhibition).

Compound | IC50 [nM]
CC1(C)CN(C(=O)c2cnn[nH]2)CCN1S(=O)(=O)c1ccccc1F [Example 34, {4-[(2-fluorophenyl)sulfonyl]-3,3-dimethylpiperazin-1-yl}(1H-1,2,3-triazol-5-yl)methanone] | 16
CC1(C)CN(C(=O)c2c[nH]nn2)CCN1S(=O)(=O)c1ccccc1C(F)(F)F [Example 27, (3,3-dimethyl-4-{[2-(trifluoromethyl)phenyl]sulfonyl}piperazin-1-yl)(1H-1,2,3-triazol-4-yl)methanone] | 7
CC1(C)CN(C(=O)c2c[nH]nn2)CCN1S(=O)(=O)c1cccc(C(F)(F)F)c1 [Example 28, (3,3-dimethyl-4-{[3-(trifluoromethyl)phenyl]sulfonyl}piperazin-1-yl)(1H-1,2,3-triazol-4-yl)methanone] | 3
C[C@@H]1CN(S(=O)(=O)c2cccc(Br)c2)C[C@H](C)N1C(=O)c1c[nH]nn1 [Example 50, {(2R,6S)-4-[(3-bromophenyl)sulfonyl]-2,6-dimethylpiperazin-1-yl}(1H-1,2,3-triazol-4-yl)methanone] | 3
C[C@@H]1CN(S(=O)(=O)c2ccc(Br)cc2)C[C@H](C)N1C(=O)c1cnn[nH]1 [Example 93, {(2R,6S)-4-[(4-bromophenyl)sulfonyl]-2,6-dimethylpiperazin-1-yl}(1H-1,2,3-triazol-5-yl)methanone] | 30
Cc1cc(C)c(S(=O)(=O)N2CCN(C(=O)c3cnn[nH]3)CC2(C)C)c(C)c1 [Example 113, {3,3-dimethyl-4-[(2,4,6-trimethylphenyl)sulfonyl]piperazin-1-yl}(1H-1,2,3-triazol-5-yl)methanone] | 39
CC1(C)CN(C(=O)c2c[nH]nn2)CCN1S(=O)(=O)c1cccc(Br)c1 [Example 23, {4-[(3-bromophenyl)sulfonyl]-3,3-dimethylpiperazin-1-yl}(1H-1,2,3-triazol-4-yl)methanone] | 2
C[C@@H]1CN(C(=O)c2cnn[nH]2)[C@@H](C)CN1S(=O)(=O)c1cccc(Cl)c1 [Example 74, {(2S,5R)-4-[(3-chlorophenyl)sulfonyl]-2,5-dimethylpiperazin-1-yl}(1H-1,2,3-triazol-5-yl)methanone] | 1
C[C@@H]1CN(C(=O)c2cnn[nH]2)[C@@H](C)CN1S(=O)(=O)c1cc(C(F)(F)F)cc(C(F)(F)F)c1 [Example 90, [(2S,5R)-4-{[3,5-bis(trifluoromethyl)phenyl]sulfonyl}-2,5-dimethylpiperazin-1-yl](1H-1,2,3-triazol-5-yl)methanone] | 5
C[C@@H]1CN(C(=O)c2c[nH]nn2)[C@@H](C)CN1S(=O)(=O)c1cc(F)ccc1F [Example 13, {(2S,5R)-4-[(2,5-difluorophenyl)sulfonyl]-2,5-dimethylpiperazin-1-yl}(1H-1,2,3-triazol-4-yl)methanone] | 2
Cc1cc(C)cc(S(=O)(=O)N2C[C@H](C)N(C(=O)c3cnn[nH]3)C[C@H]2C)c1 [Example 92, {(2S,5R)-4-[(3,5-dimethylphenyl)sulfonyl]-2,5-dimethylpiperazin-1-yl}(1H-1,2,3-triazol-5-yl)methanone] | 1
CC1(C)CN(C(=O)c2cnn[nH]2)CCN1S(=O)(=O)c1c(Cl)cc(Cl)cc1Cl [Example 123, {3,3-dimethyl-4-[(2,4,6-trichlorophenyl)sulfonyl]piperazin-1-yl}(1H-1,2,3-triazol-5-yl)methanone] | 12
Cc1c(Cl)cccc1S(=O)(=O)N1C[C@@H](C)N(C(=O)c2cnn[nH]2)[C@@H](C)C1 [Example 103, {(2R,6S)-4-[(3-chloro-2-methylphenyl)sulfonyl]-2,6-dimethylpiperazin-1-yl}(1H-1,2,3-triazol-5-yl)methanone] | 2
C[C@@H]1CN(S(=O)(=O)c2cc(C(F)(F)F)cc(C(F)(F)F)c2)C[C@H](C)N1C(=O)c1cnn[nH]1 [Example 98, [(2R,6S)-4-{[3,5-bis(trifluoromethyl)phenyl]sulfonyl}-2,6-dimethylpiperazin-1-yl](1H-1,2,3-triazol-5-yl)methanone] | 56
COc1cc(F)ccc1S(=O)(=O)N1CCN(C(=O)c2cnn[nH]2)CC1(C)C [Example 138, {4-[(4-fluoro-2-methoxyphenyl)sulfonyl]-3,3-dimethylpiperazin-1-yl}(1H-1,2,3-triazol-5-yl)methanone] | 23
C[C@@H]1CN(C(=O)c2cnn[nH]2)[C@@H](C)CN1S(=O)(=O)c1ccc(O)cc1 [Example 17, {(2S,5R)-4-[(4-hydroxyphenyl)sulfonyl]-2,5-dimethylpiperazin-1-yl}(1H-1,2,3-triazol-5-yl)methanone] | 12
C[C@@H]1CN(S(=O)(=O)c2cccc(Cl)c2)C[C@H](C)N1C(=O)c1c[nH]nn1 [Example 48, {(2R,6S)-4-[(3-chlorophenyl)sulfonyl]-2,6-dimethylpiperazin-1-yl}(1H-1,2,3-triazol-4-yl)methanone] | 3
COc1cccc(S(=O)(=O)N2C[C@@H](C)N(C(=O)c3cnn[nH]3)[C@@H](C)C2)c1 [Example 108, {(2R,6S)-4-[(3-methoxyphenyl)sulfonyl]-2,6-dimethylpiperazin-1-yl}(1H-1,2,3-triazol-5-yl)methanone] | 40
CC1(C)CN(C(=O)c2cnn[nH]2)CCN1S(=O)(=O)c1ccc(Br)cc1 [Example 109, {4-[(4-bromophenyl)sulfonyl]-3,3-dimethylpiperazin-1-yl}(1H-1,2,3-triazol-5-yl)methanone] | 4
COc1cccc(S(=O)(=O)N2C[C@H](C)N(C(=O)c3cnn[nH]3)C[C@H]2C)c1 [Example 87, {(2S,5R)-4-[(3-methoxyphenyl)sulfonyl]-2,5-dimethylpiperazin-1-yl}(1H-1,2,3-triazol-5-yl)methanone] | 2
C[C@@H]1CN(C(=O)c2cnn[nH]2)[C@@H](C)CN1S(=O)(=O)c1cccc(Br)c1 [Example 78, {(2S,5R)-4-[(3-bromophenyl)sulfonyl]-2,5-dimethylpiperazin-1-yl}(1H-1,2,3-triazol-5-yl)methanone] | 1
C[C@@H]1CN(S(=O)(=O)c2ccc(Cl)cc2)C[C@H](C)N1C(=O)c1cnn[nH]1 [Example 95, {(2R,6S)-4-[(4-chlorophenyl)sulfonyl]-2,6-dimethylpiperazin-1-yl}(1H-1,2,3-triazol-5-yl)methanone] | 20
COc1ccc(S(=O)(=O)N2CCN(C(=O)c3cnn[nH]3)CC2(C)C)cc1OC [Example 118, {4-[(3,4-dimethoxyphenyl)sulfonyl]-3,3-dimethylpiperazin-1-yl}(1H-1,2,3-triazol-5-yl)methanone] | 77
CC1(C)CN(C(=O)c2c[nH]nn2)CCN1S(=O)(=O)c1ccccc1 [Example 19, [3,3-dimethyl-4-(phenylsulfonyl)piperazin-1-yl](1H-1,2,3-triazol-4-yl)methanone] | 17
C[C@@H]1CN(C(=O)c2c[nH]nn2)[C@@H](C)CN1S(=O)(=O)c1ccc(Cl)s1 [Example 10, {(2S,5R)-4-[(5-chlorothiophen-2-yl)sulfonyl]-2,5-dimethylpiperazin-1-yl}(1H-1,2,3-triazol-4-yl)methanone] | 3
C[C@@H]1CN(C(=O)c2c[nH]nn2)C[C@H](C)N1S(=O)(=O)c1ccccc1 [Example 38, [(3R,5S)-3,5-dimethyl-4-(phenylsulfonyl)piperazin-1-yl](1H-1,2,3-triazol-4-yl)methanone] | 14
C[C@@H]1CN(S(=O)(=O)c2cccc(OC(F)(F)F)c2)C[C@H](C)N1C(=O)c1cnn[nH]1 [Example 106, [(2R,6S)-2,6-dimethyl-4-{[3-(trifluoromethoxy)phenyl]sulfonyl}piperazin-1-yl](1H-1,2,3-triazol-5-yl)methanone] | 34
